Converted amounts (≈) assume the structure as drawn. “Also recorded” adds a separate entry of the source. Where two headings read alike, the source gives them in different places.
What was measured:
[1] = Procedure: Mice used in this study were female Swiss Webster aged approximately 6-7 weeks and sourced from the University of Otago Biomedical Research Facility. […] Briefly, the fur on the back of each mouse was removed by shaving and chemical depilation. Antibiotics were tested for skin toxicity by injecting 50 μL of antibiotic suspension subcutaneously into naïve mice, and subsequent inspection of the skin for inflammation on the next day. P. aeruginosa LESB58 was grown to mid-log phase in dYT broth, washed twice in sterile PBS (Gibco, pH 7.4), and resuspended in PBS to ~1 x 10^8 CFU per 50 μL inoculum. The bacterial suspension (50 μL) was injected subcutaneously into the right side of the dorsum, followed one hour later by 50 μL of antibiotic treatment injected directly into the infected area. […] Combination treatments were administered as a single 50 μL injection containing both antibiotics. The concentration of each antibiotic in the combination was the same as when it was used alone. Progression of the infection was monitored daily, and abscess dimensions were measured on day three using a calliper. On day three, abscess tissue and pus were excised, homogenized in sterile PBS using SPEX SamplePrep 1600 MiniG for five minutes and bacterial CFU counts determined by serial dilution.
P. aeruginosa LESB58 [2] = assay: microbe, parasite or virus in culture; assay type: cell-based, Pseudomonas aeruginosa; settings: for MIC: Pseudomonas aeruginosa; for Fold change TCM vs MHB (MIC): MIC in TCM vs MIC in MHB
Procedure: (§1) For susceptibility testing under standard conditions, bacteria were cultured in Muller Hinton Broth MHB (Fort Richards Laboratories). […] Further susceptibility testing was also conducted in MHB supplemented with FBS (5% v/v) and DMEM supplemented with glucose (1% w/v) and MHB (10% v/v).
The minimum inhibitory concentration (MIC) of each antibiotic was determined using the broth microdilution method in 96-well plates. […] Briefly, antibiotics were two-fold serially diluted in MHB or TCM prior to adding 1 × 10^6 CFU mL^-1 bacteria. […] The MIC was recorded as the lowest antibiotic concentration with no visible growth and the median value of at least three biological replicates reported.

P. aeruginosa PAO1 = assay: Minimum inhibitory concentration, broth microdilution; assay type: cell-based, Pseudomonas aeruginosa; settings: for MIC: Pseudomonas aeruginosa, PAO1; for Fold change TCM vs MHB (MIC): MIC in TCM vs MIC in MHB
Procedure: as §1
The minimum inhibitory concentration (MIC) of each antibiotic was determined using the broth microdilution method in 96-well plates. […] Briefly, antibiotics were two-fold serially diluted in MHB or TCM prior to adding 1 × 10^6 CFU mL^-1 bacteria. Plates were incubated at 37°C for 22-24 hours. The MIC was recorded as the lowest antibiotic concentration with no visible growth and the median value of at least three biological replicates reported.

P. aeruginosa LESB58 [3] = assay: In vitro synergy, checkerboard assay; assay type: cell-based, Pseudomonas aeruginosa; settings: MHB; for FICI, drug combined with CAZ / FICI, drug combined with CZA: FICI <= 0.5 indicates synergy
Procedure: (§2) For susceptibility testing under standard conditions, bacteria were cultured in Muller Hinton Broth MHB (Fort Richards Laboratories). Host mimicking conditions in vitro were simulated using tissue culture medium (TCM) consisting of Dulbecco’s modified Eagle medium (DMEM; Gibco #11965) supplemented with FBS (Moregate Biotech) (5% v/v) and glucose (1% w/v). Further susceptibility testing was also conducted in MHB supplemented with FBS (5% v/v) and DMEM supplemented with glucose (1% w/v) and MHB (10% v/v).
(§3) The P. aeruginosa LESB58.lux strain was used for in vitro synergy experiments with azithromycin in MHB and all antibiotic combinations in TCM to determine bacterial growth (as visual inspection and absorbance measurements were unreliable). Synergy was determined using the checkerboard method ([Berenbaum, 1978]; [Pletzer and Hancock, 2018]) in at least triplicate. Each antibiotic was two-fold serially diluted in sterile water before transferring to a 96-well plate containing 1 × 10^6 CFU mL^-1 bacteria in MHB or TCM. Plates were incubated at 37°C for 22-24 hours. The MIC alone or in combination was recorded as the lowest antibiotic concentration with no visible growth. For experiments using the LESB58.lux strain no visible growth was defined as an at least 95% reduction compared to the no antibiotic growth control in luminescence detected using a ClarioStar plate reader. The fractional inhibitory concentration index (FICI) was calculated as [(MICA in combination)/MICA] + [(MICB in combination)/MICB]. FICI values of 0.5 or below indicated synergy, while values above 0.5 up to and including 1 were taken to indicate additivity. FICI values above 1 indicate indifference or antagonism ([Odds, 2003]).

P. aeruginosa LESB58-lux = assay: In vitro synergy, checkerboard assay (luminescence readout); assay type: cell-based, Pseudomonas aeruginosa; settings: TCM; for FICI, drug combined with CAZ / FICI, drug combined with CZA: FICI <= 0.5 indicates synergy
Procedure: as §2, §3

P. aeruginosa LESB58 [4] = assay: Murine high density subcutaneous skin abscess model; assay type: in vivo, Pseudomonas aeruginosa; settings: Colistin
Procedure: Mice used in this study were female Swiss Webster aged approximately 6-7 weeks and sourced from the University of Otago Biomedical Research Facility. […] The subcutaneous abscess infection model was performed as previously described ([Pletzer et al., 2017]) with a higher inoculum. Briefly, the fur on the back of each mouse was removed by shaving and chemical depilation. Antibiotics were tested for skin toxicity by injecting 50 μL of antibiotic suspension subcutaneously into naïve mice, and subsequent inspection of the skin for inflammation on the next day. P. aeruginosa LESB58 was grown to mid-log phase in dYT broth, washed twice in sterile PBS (Gibco, pH 7.4), and resuspended in PBS to ~1 x 10^8 CFU per 50 μL inoculum. The bacterial suspension (50 μL) was injected subcutaneously into the right side of the dorsum, followed one hour later by 50 μL of antibiotic treatment injected directly into the infected area. […] Combination treatments were administered as a single 50 μL injection containing both antibiotics. The concentration of each antibiotic in the combination was the same as when it was used alone. Progression of the infection was monitored daily, and abscess dimensions were measured on day three using a calliper. On day three, abscess tissue and pus were excised, homogenized in sterile PBS using SPEX SamplePrep 1600 MiniG for five minutes and bacterial CFU counts determined by serial dilution. In this model, synergy was defined as being a significant difference between the combination treated group and the amalgamated group of single drug treated animals ([Fantin and Carbon, 1992]; [Pletzer et al., 2018]).
Statistical analysis was performed using GraphPad Prism 9.5.1. Bacterial CFU and abscess size data from in vivo experiments was analysed by Kruskal-Wallace test with Dunn’s correction for multiple comparisons. The data was considered significant when p-values were below 0.05 or 0.01 as indicated.

[5] = 50 μL injected subcutaneously, skin inspected next day
[6] = LESB58, read-out: MIC in MHB, MHB, 20-24 h
[7] = LESB58, read-out: MIC in TCM, TCM (DMEM + 1% glucose + 5% FBS), 20-24 h
[8] = tigecycline and tobramycin groups, compared to the vehicle control, day 3

SMILES	MIC (P. aeruginosa LESB58 [2]; [6]) [mg/L]	MIC (P. aeruginosa LESB58 [2]; [7]) [mg/L]	MIC (P. aeruginosa PAO1; read-out: MIC in MHB) [mg/L]	MIC (P. aeruginosa PAO1; read-out: MIC in TCM) [mg/L]	FICI, drug combined with CAZ (P. aeruginosa LESB58 [3])	Highest tolerated dose tested [1, 5] [mg/mL]	Fold change TCM vs MHB (MIC) (P. aeruginosa LESB58 [2])	Fold change TCM vs MHB (MIC) (P. aeruginosa PAO1)	Fold decrease in CAZ MIC, drug combined with CAZ (P. aeruginosa LESB58 [3])	Fold decrease in CZA MIC, drug combined with CZA (P. aeruginosa LESB58 [3])	Fold decrease in other MIC, drug combined with CAZ (P. aeruginosa LESB58 [3])	Fold decrease in other MIC, drug combined with CZA (P. aeruginosa LESB58 [3])	other results
C[C@@H](O)[C@H]1C(=O)N2C(C(=O)O)=C(S[C@@H]3CN[C@H](C(=O)N(C)C)C3)[C@H](C)[C@H]12 [MEM]	–	–	–	–	–	–	–	–	–	–	–	–	Toxic (visible skin irritation, inflammation, blood vessels, swelling) [1, 5]: 20 mg/mL; Highest tolerated dose tested ([1]; mouse, in vivo, sc): 10 mg/mL
O=C(O)c1cn(C2CC2)c2cc(N3CCNCC3)c(F)cc2c1=O [CIP, ciprofloxacin]	3.13 (≈ 9.45 µM)	50	0.156 (≈ 0.471 µM)	1.25 (≈ 3.77 µM)	0.5	40	–	–	–	–	–	–	FICI, drug combined with CZA (P. aeruginosa LESB58 [3]): 0.5; Ceftazidime-avibactam MIC in combination with the named drug (P. aeruginosa LESB58-lux): 4 mg/L; FICI, drug combined with CAZ (P. aeruginosa LESB58-lux; LESB58-lux): 0.63; FICI, drug combined with CZA (P. aeruginosa LESB58-lux; LESB58-lux): 0.63
NC[C@H]1O[C@H](O[C@H]2[C@H](O)[C@@H](O[C@H]3O[C@H](CO)[C@@H](O)[C@H](N)[C@H]3O)[C@H](N)C[C@@H]2N)[C@H](N)C[C@@H]1O [TOB, tobramycin]	3.13 (≈ 6.69 µM)	62.5	0.625 (≈ 1.34 µM)	25 (≈ 53.5 µM)	0.38	–	20	40	4	4	8	8	FICI, drug combined with CAZ (P. aeruginosa LESB58 [3]; listed as tobramycin): < 0.4; FICI, drug combined with CZA (P. aeruginosa LESB58 [3]; listed as tobramycin): < 0.4; Fold decrease in CAZ MIC, drug combined with CAZ (P. aeruginosa LESB58-lux; LESB58-lux): 8; Fold decrease in CZA MIC, drug combined with CZA (P. aeruginosa LESB58-lux; LESB58-lux): 2; Fold decrease in other MIC, drug combined with CAZ (P. aeruginosa LESB58-lux; LESB58-lux): 4; Fold decrease in other MIC, drug combined with CZA (P. aeruginosa LESB58-lux; LESB58-lux): 8; FICI, drug combined with CAZ (P. aeruginosa LESB58-lux; LESB58-lux): 0.38; FICI, drug combined with CZA (P. aeruginosa LESB58-lux; LESB58-lux): 0.63; FICI, drug combined with CAZ (P. aeruginosa LESB58-lux; LESB58-lux, listed as tobramycin): synergised; also recorded: retained; Area of dermoncecrosis, Mean (P. aeruginosa LESB58 [4]; tigecycline and tobramycin groups (shared vehicle, CAZ and CZA mice), female Swiss Webster mice, 50 μL s.c. 1 h after infection, day 3, CAZ or CZA 50, CST 1.25, TGC 2.5, TOB 2 mg/mL, vehicle 0.9% saline): 55.6 mm^2; Area of dermoncecrosis, % reduction (P. aeruginosa LESB58 [4]; [8]): 40.9%; CFU per abscess, Fold change (P. aeruginosa LESB58 [4]; [8]): -5.4; Area of dermoncecrosis, % reduction (P. aeruginosa LESB58 [4]; tigecycline and tobramycin groups, compared to the vehicle control, day 3, listed as tobramycin): 41%; CFU per abscess, Geometric mean (P. aeruginosa LESB58 [4]; tigecycline and tobramycin groups, day 3): 4.5 × 10^7 CFU per abscess; Fold reduction of bacterial load (CFU) relative to vehicle (P. aeruginosa LESB58 [4]; tigecycline, tobramycin experiments): ~5
C[C@H]1[C@H](NC(=O)/C(=N\OC(C)(C)C(=O)O)c2csc(N)n2)C(=O)N1S(=O)(=O)O [ATM, aztreonam]	62.5 (≈ 144 µM)	500	12.5 (≈ 28.7 µM)	12.5 (≈ 28.7 µM)	0.75	25	8	1	2	2	4	4	FICI, drug combined with CZA (P. aeruginosa LESB58 [3]): 0.75
CNC(C)C1CCC(N)C(OC2C(N)CC(N)C(OC3OCC(C)(O)C(NC)C3O)C2O)O1 (stereo not drawn) [GEN, gentamicin]	25 (≈ 52.3 µM)	500	1.56 (≈ 3.27 µM)	25 (≈ 52.3 µM)	0.25	20	20	16	8	8	8	8	Toxic (visible skin irritation, inflammation, blood vessels, swelling) [1, 5]: 40 mg/mL
C[C@]1(Cn2ccnn2)[C@H](C(=O)O)N2C(=O)C[C@H]2S1(=O)=O [Tazobactam]	–	–	–	–	–	–	–	–	–	–	–	–	Highest tolerated dose tested ([1]; female, Swiss Webster, mouse, in vivo, sc, 1 day): 25 mg/mL
Cn1c(N)c(NC(=O)NCCN)c[n+]1CC1=C(C(=O)O)N2C(=O)[C@@H](NC(=O)/C(=N\OC(C)(C)C(=O)[O-])c3nsc(N)n3)[C@H]2SC1 [Ceftolozane]	–	–	–	–	–	50	–	–	–	–	–	–	–
